{
  "source": "paper PMC4169579",
  "about": "“Proteolytic Activity of Prostate-Specific Antigen (PSA) towards Protein Substrates and Effect of Peptides Stimulating PSA Activity” (PLoS ONE, 2014)",
  "key": {"PSA [1]": {"target": "T1, PSA (Homo sapiens, UniProt P07288)", "T1 construct": "from tissue; host or cells: pooled human seminal fluid", "T1 sequence (P07288 25-261)": "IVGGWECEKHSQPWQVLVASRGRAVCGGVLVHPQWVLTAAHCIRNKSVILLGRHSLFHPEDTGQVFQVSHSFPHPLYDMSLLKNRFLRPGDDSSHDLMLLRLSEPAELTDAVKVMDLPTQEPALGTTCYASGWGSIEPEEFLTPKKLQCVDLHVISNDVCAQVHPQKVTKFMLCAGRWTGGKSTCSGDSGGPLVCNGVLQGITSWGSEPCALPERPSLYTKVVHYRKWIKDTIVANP", "assay": "Enzyme kinetics of PSA with chromogenic peptide substrate S-2586", "type": "biochemical", "conditions": "S-2586 0.125–5 mM, 175 nM PSA, 0.1% BSA-TBS, room temperature, mean ± SD of two experiments", "procedure": "(§1) The major form of active PSA (isoform PSA-B) was purified from pooled human seminal fluid by immunoaffinity chromatography followed by anion exchange chromatography. Semenogelins I and II were isolated from human seminal fluid as previously described, but instead of alkylating the proteins, the reducing agent 30 mM dithiothreitol (Sigma-Aldrich, St. Louis, MO) was included in all buffers during purification. Semenogelins were stored in the purification buffer containing 2 M urea and 5 mM EDTA at −70°C. Prior to cleavage by PSA, the buffer was exchanged to 50 mM Tris, pH 7.7, containing 0.15 M NaCl (TBS), with Amicon Ultra centrifugal filter units (MW cut-off 30 kDa) (Millipore, Cork, Ireland) at 4°C, and protein concentration was determined by measuring absorbance at 280 nm.\nThe proteolytic activity of PSA towards small peptide substrates was compared with two different substrates. […] The absorbance was measured at 405 nm immediately and at 5 min intervals for 30 min and fluorescence at 355/460 nm (excitation/emission) after 10 min, 20 min, 40 min, 1 h, 2 h and 4 h incubation at room temperature with a Victor 1420 Multilabel plate reader (PerkinElmer). […]\nThe maximum velocity of the reaction (Vmax) and the Michaelis constant (Km), i.e., substrate concentration at which the reaction rate is half of the maximum, were evaluated for PSA with both peptide substrates using Sigma Plot 11 with the Enzyme Kinetics Module 1.3 (SYSTAT Software, Inc., San Jose, CA) and the catalytic constant (kcat), i.e., the number of substrate molecules converted to product per time unit, was calculated from the equation kcat = Vmax/[PSA]. The absorbance was converted to molar concentration with the Lambert-Beer equation (A = εcl), using the molar absorptivity of pNA (εpNA = 8800 M^−1cm^−1). Fluorescence (counts per second, cps) was transformed to molar concentrations with SigmaPlot by means of a standard curve for 7-amido-4-methylcoumarin (AMC, Sigma-Aldrich)."}, "PSA [2]": {"target": "T1, PSA", "conditions": "ref [15], [47]; cited from earlier work", "text": "Previously, several selective and efficient substrates for PSA have been described. We used a fluorogenic peptide substrate identified by Denmeade and coworkers (1997). […] These differences may be explained by higher activity of the highly pu ..."}, "HUVECs [3]": {"test_system": "HUVECs", "assay": "HUVEC tube formation assay on Matrigel", "type": "cell-based, human", "conditions": "two separate experiments", "procedure": "Human umbilical vein endothelial cells (HUVECs) were isolated from umbilical cord veins and grown in Endothelial Cell Growth Medium (Promocell, Heidelberg, Germany) with 2% Ultroser G BioSepra serum substitute (PALL BioSepra, Cergy, France) and growth factors EGF and bFGF. For tube formation, HUVECs were grown on top of Matrigel (BD Biosciences) as described previously, [29].\nTo study the effect of PSA-cleaved protein fragments, 0.08 µM nidogen-1 or 0.4 µM galectin-3 (10 µg/ml each) were first incubated with 1 µM PSA for 24 h at 37°C in PBS (Lonza). Then PSA activity was blocked by one-hour incubation at room temperature with 2 µM monoclonal antibody 5C7 [38]. The mixture containing nidogen-1 or galectin-3 fragments with PSA blocked by antibody or the same amount of intact nidogen-1 or galectin-3 were added together with the cells onto gelled Matrigel and the cells were allowed to form tubular networks for 20 h. Control wells contained either PBS or 1 µM PSA. After overnight incubation, cell culture medium was collected from PBS and PSA control wells for SDS-PAGE and Western blotting. Images of tubular networks (100×magnification) were taken using an Axiovert 200 inverted light microscope connected to an AxioCam digital camera and visualized by AxioVision software (all from Zeiss, Göttingen, Germany)."}, "HUVECs [4]": {"test_system": "HUVECs", "design": "method as in PMID 10702407, PMID 20713592", "conditions": "full-length galectin-3; ref [55], [72]; cited from earlier work"}, "PSA [5]": {"target": "T1, PSA", "assay": "Proteolytic cleavage of protein substrates by PSA (SDS-PAGE, silver staining)", "type": "biochemical", "conditions": "22 h incubation, 37°C, different plasminogen preparations and PSA batches", "procedure": "as §1\nProtein LoBind tubes (Eppendorf AG, Hamburg, Germany) were used in all protein degradation experiments.\nPSA (0.2–1 µM) and 0.5–1 µM of each protein substrate were incubated at 37°C for 22 h in TBS buffer. During the incubation, samples of 15 µl were taken at different time points: 0 min, 10 min, 30 min, 2 h, 5 h and 22 h, and stored at −20°C before further analysis.\nImmediately after each incubation, reducing 4× SDS-loading buffer (8% SDS), containing 1 M β-mercaptoethanol or 75 mM dithiothreitol, was added to each sample and proteins were denatured at 70°C for 10 min. The samples were immediately analyzed by SDS-PAGE or frozen at −20°C. Frozen samples were heated again at 70°C before loading on the gel. The cleavage of protein substrates by PSA, i.e., the disappearance of the full-length protein bands, was quantified from scanned images of silver stained gels by the measurement of relative optical densities of the protein bands using ImageJ [40]. […]\nProteins were visualized either by silver staining or Western blotting. […] After 30 min incubation in 0.2% AgNO3, the gel was rinsed briefly with water and proteins were detected with development solution, containing 700 µl/l of 37% formaldehyde, 0.001% sodium thiosulfate and 3% anhydrous Na2CO3. […]"}, "PSA [6]": {"target": "T1, PSA", "conditions": "reported to inhibit angiogenesis in vitro; ref [20]; cited from earlier work", "procedure": "In the present study, we compared the proteolytic activity of PSA towards several protein substrates. As shown previously, semenogelins are cleaved very effectively by PSA. Malm and coworkers (2000) reported that more than half of semenogelin I is degraded after 15 min incubation with PSA [16], [63] and we observed this after 11 min incubation. Proteolysis of the other protein substrates, i.e., fibronectin, IGFBP-3, galectin-3 and nidogen-1, took much longer, reflecting the high substrate specificity of PSA for semenogelins. […] However, the detailed mechanism of the antiangiogenic activity of PSA remains unclear. Some of the proteolytically produced fragments of extracellular matrix (ECM) proteins act as endogenous angiogenesis inhibitors and may mediate the antiangiogenic effect of PSA. […] Although plasminogen ..."}},
  "note": "Like-named read-outs stand apart in the source and are kept apart here.",
  "data": [
    {"substance": "MeO-Suc-Arg-Pro-Tyr-pNA·HCl [Chromogenic substrate, chromogenic chymotrypsin substrate S-2586]", "values": [
      {"measurement": "Km", "setting": "PSA [1]; 405 nm, 5 min intervals for 30 min", "value": "5.72 ± 1.53", "unit": "mM"},
      {"measurement": "kcat/Km", "setting": "PSA [1]", "value": "133.4±24.6", "unit": "s^−1M^−1"},
      {"measurement": "kcat", "setting": "PSA [1]; kcat = Vmax/[PSA]", "value": "0.75 ± 0.07", "unit": "s⁻¹"},
      {"measurement": "kcat/Km reported previously, compared to this study", "setting": "PSA [2]", "value": "somewhat lower than that we observed"}
    ]},
    {"substance": "galectin-3: recombinant human galectin-3", "values": [
      {"measurement": "effect on tube formation, PSA-generated fragments", "setting": "HUVECs [3]; 10 µg/ml (0.08 µM nidogen-1, 0.4 µM galectin-3) precleaved by 1 µM PSA 24 h, PSA blocked by mAb 5C7, 20 h", "value": "did not have any effect on tube formation"},
      {"measurement": "effect on tube formation, full-length protein", "setting": "HUVECs [3]; 10 µg/ml (0.08 µM nidogen-1, 0.4 µM galectin-3), 20 h, HUVECs on Matrigel", "value": "did not have any effect on tube formation"},
      {"measurement": "angiogenesis", "setting": "HUVECs [4]", "value": "promote angiogenesis"}
    ]},
    {"substance": "plasminogen: plasminogen (Calbiochem and Hyphen BioMed) and lys-plasminogen from human plasma", "values": [
      {"measurement": "cleavage of plasminogen by PSA", "setting": "PSA [5]", "value": "PSA did not cleave plasminogen"},
      {"measurement": "cleavage of plasminogen by PSA", "setting": "PSA [6]", "value": "cleave plasminogen to angiostatin-like fragments"}
    ]}
  ]
}
